Square brackets hold non-standard residues; d marks the D form. Peptide text beside a SMILES is read from it. * marks the point of attachment. Nle = CCCC[C@H](N)C(=O)O; Cbz = O=C(OCc1ccccc1)*; CH2F = FC*
Columns and labels:
Assay type in all cases: cell-based
[1] = system: NF-kB DNA binding activity; assay: Electromobility shift assay for NF-kB DNA binding activity in rat hepatic stellate cells; settings: activated rat HSC; for TNF-α-inducible NF-kB DNA binding activity: 10 ng/mL TNF-α, same concentrations as for constitutive activity; for constitutive NF-kB DNA binding activity: gliotoxin 1.5 μmol/L, N-acetyl cysteine 5 mM, calpain inhibitor 1 50 μM, dexamethasone 0.5 μm, pentoxyfilline 3.6 mM
Procedure: Crude high salt extractable nuclear protein was prepared from activated hepatic stellate cells for analysis of NF-kB DNA binding activity essentially as described (Elsharkawy et al., supra), aliquoted and stored at −80° C. until required. Extract protein concentrations were determined using the Lowry colorimetric assay (Lowry et al., supra) with bovine serum albumin as standard. A double stranded 5′ end labeled radiolabeled oligonucleotide [sense 5′-[…]-[…] (SEQ ID NO:1)] containing a consensus NF-kB DNA binding site as underlined (Baldwin et al., Annu. Rev. Immunol., (1996) 14:649-681) was used to determine NFkB DNA binding activity in crude nuclear extracts (Elsharkawy et al., supra).
The effect of gliotoxin on NF-kB activity in hepatic stellate cells was investigated. Culture-activated (14-day) rat hepatic stellate cells were incubated in the presence or absence of 10 ng/mL TNF-α fifteen minutes after addition of:
After a further 30 minutes, and before any significant morphologic changes, cells were washed with ice-cooled PBS, nuclear extracts prepared, and NF-kB DNA binding activity assessed by gel shift analysis. […] Each lane contained […] of protein and the results were the same for at least three separate experiments.

[2] = system: rat hepatic stellate cells; assay: Morphology and detachment of culture-activated rat hepatic stellate cells (light microscopy); settings: rat HSC; for effect on morphologic alterations / detachment caused by gliotoxin: with 1.5 μmol/L gliotoxin, Z-VAD-FMK 100 μmol/L, PDTC 300 μmol/L, tamoxifen 100 μmol/L, m-IBG 250 (mmol/L in the source), quin-2-am 50 μmol/L
From the text: Rat hepatic stellate cells (HSCs) were isolated by pronase/collagenase perfusion and purified by isopycnic density centrifugation in Opti-prep™ (Nycomed, Amersham, England) and elutriation essentially as previously described (Bahr et al., Hepatology (1999) 29:839-848). Human hepatic stellate cells were isolated from discarded resected liver via a similar protocol (Trim et al., J. Biol. Chem., (2000) 275:6657-6663). The use of human liver tissue for scientific investigation was approved by the UK South and West Local Research Ethics Committee and was subject to patient consent.
It has been shown recently that liver myofibroblasts may contribute to liver fibrogenesis and that liver myofibroblasts may have the potential to contaminate passaged hepatic stellate cell cultures (Knittel et al., Gastronenterology, (1999) 117:1205-1221). In this study, only primary cultures of hepatic stellate cells were used, which were desmin and glial fibrillary acid protein positive (markers shown to be expressed in hepatic stellate cells, but not liver myofibroblasts—Knittel et al., supra).
(§1) Cells were treated with gliotoxin dissolved in DMSO vehicle (added to medium from a 2000-fold molar concentrated stock). Control cells received DMSO vehicle only (i.e., 0.05% vol/vol). All other additions to culture medium were made from concentrated stocks dissolved in DMSO or by direct addition to culture medium. Protein contents of wells were determined using the Lowry assay (Lowry et al., J. Biol. Chem., (1951)193: 265-275).
Culture activated rat (14 day) and human (24 day) hepatic stellate cells were treated with DMSO solvent control or 1.5 μMol/L gliotoxin. […] Hepatic stellate cells changed from a flattened fibroblastic phenotype with distinct cell-cell interfaces to a substratum detached, rounded, and blebbed morphology.

[3] = system: rat hepatic stellate cells; assay: Low molecular weight DNA fragmentation (nucleosomal ladder) in rat hepatic stellate cells; settings: four hours; for effect on gliotoxin-induced cleavage of DNA to a nucleosomal ladder: with 1.5 μmol/L gliotoxin, PDTC 300 μmol/L, tamoxifen 100 μmol/L, m-IBG 250 (mmol/L in the source), cyclosporin 10 μmol/L, quin-2-am 50 μmol/L
Procedure: (§2) Hepatic stellate cells cultured in 35-mm diameter dishes (Greiner) were harvested, pelleted by centrifugation and DNA fragmentation determined as outlined elsewhere (Elsharkawy et al., Hepatology (1999) 30:761-769). Propidium Iodide Flow-Activated Cell Sorting Analysis Detached cells were pelleted by centrifugation, washed in PBS, and resuspended in HYPO buffer (0.1% wt/vol) Na3Citrate and 0.1% (wt/vol) Triton™ X-100 containing […] propidium iodide and incubated for 1 hour. The cells were then analyzed by fluorescence-activated cell sorter (FACS) with a Becton Dickinson (San Jose, Calif.) FACScan instrument using a 488 nm excitation wavelength with a band pass filter set at 530 nm. Attached cells were scraped in HYPO buffer after washing cells with PBS.
The effect of gliotoxin on the cleavage of DNA to a nucleosomal ladder was examined because this phenomenon is characteristic of apoptosis. Culture activated (14-day) rat hepatic stellate cells in six well plates were treated with either 0.05% (vol/vol) DMSO for four hours or 1.5 μmol/L gliotoxin for zero hours, half an hour, one hour, two hours or four hours. At each time point, both detached and attached cells were harvested together and low molecular weight DNA (20,000 g supernatant) fragmentation determined as outlined in the materials and methods section. At least three separate experiments were performed. 1 kilobase DNA ladder (Promega) was used as a molecular weight marker.
The effect of various compounds on DNA laddering was then determined. Culture-activated (14-day) rat hepatic stellate cells in six-well plates were treated with:
After fours hours of treatment, DNA fragmentation was determined.
Culture activated (14 day) rat hepatic stellate cells in six well plates were treated with: • (a) 0.05% (vol/vol) DMSO; • (b) 1.5 μmol/L gliotoxin; • (c) 1.5 μmol/L gliotoxin with 100 μmol/L tamoxifen; • (d) 1.5 μmol/L gliotoxin with […] actinomycin d; • (e) 1.5 μmol/L gliotoxin with 10 μmol/L cycloheximide; • (f) 1.5 μmol/L gliotoxin with 10 μmol/L cyclosporin; • (g) 1.5 μmol/L gliotoxin with […] m-iodobenzylguanidine; • (h) 1.5 μmol/L gliotoxin with 50 μmol/L quin-2-am; • (i) 50 μmol/L guin-2-am alone; • (j) 250 μmol/L m-iodobenzylguanidine; • (k) 10 μmol/L cyclosporin; • (l) 10 μmol/L cycloheximide; • (m) 1 μg/ml actinomycin d; or • (n) 100 μmol/L tamoxifen.
After four hours of treatment, DNA fragmentation was determined as outlined in Materials and Methods.

[4] = system: caspase 3 activity in rat hepatic stellate cells; assay: Caspase 3 (Ac-DEVD-pNA cleavage) activity in rat hepatic stellate cells; settings: 20 μmol/L Z-VAD-FMK with 1.5 μmol/L gliotoxin, three hours
Procedure: Hepatic stellate cells cultured in 100 mm diameter dishes (Greiner, Frickenhausen, Germany) were harvested and pelleted by centrifugation. The medium supernatant was discarded and the cell pellet was washed in 1 mL of ice-cooled phosphate buffered saline (PBS). Caspase 3 (DEVDase) activity was determined using a colorimetric CaspACE kit (Promega, Southampton, England) using the manufacturer's instructions.
Caspase 3 (Ac-DEVD-pNA cleavage) activity was then examined in control and gliotoxin-treated hepatic stellate cells. Culture activated rat hepatic stellate cells (14 days) in 100 mm diameter plates were treated with 0.05% (vol/vol) DMSO, 1.5 μmol/L gliotoxin, 20 μmol/L Z-VAD-FMK or 200 μmol/L chlorpromazine for three hours. The cells were then harvested for examination of caspase 3 activity as outlined in the materials and methods sections.

rat hepatocytes [5] = assay: Rat hepatocyte viability by attachment and trypan blue exclusion; settings: 200 μmol/L, four hours
Procedure: Rat hepatocytes were isolated by collagenase perfusion essentially as previously described. (Harvey et al., Biochemical J., (1998) 331:273-281). Hepatocytes were cultured as outlined for hepatic stellate cells except that they were initially seeded onto collagen coated plates in William's medium E supplemented with 10% fetal calf serum and 1 μg/mL insulin for the first 2 hours.
as §1
The effect of various compounds on cell viability and attachment was determined. Viability of rat hepatocytes as judged by attachment and 0.1% (wt/vol) trypan blue exclusion after four hours treatment with: […]

rat hepatocytes [6] = assay: DNA laddering in rat hepatocytes; settings: four hours; 50 μmol/L gliotoxin, 200 μmol/L chlorpromazine, 200 μmol/L methapyrilene, 10 ng/mL TNF-α with cycloheximide
Procedure: as §2
DNA laddering was also used to compare the effect of gliotoxin, chlorpromazine, methapyrilene and also the combination of TNF-α with cycloheximide on hepatocytes and hepatic stellate cells.

Compound	TNF-α-inducible NF-kB DNA binding activity [1]	constitutive NF-kB DNA binding activity [1]	effect on gliotoxin-induced cleavage of DNA to a nucleosomal ladder [3]	effect on morphologic alterations / detachment caused by gliotoxin [2]	further results
CCCC[C@@H](C=O)NC(=O)[C@H](CC(C)C)NC(=O)[C@H](CC(C)C)NC(C)=O [Calpain inhibitor 1] (Ac-Leu-Leu-[Nle]-aldehyde)	inhibited the formation and altered the mobilities	inhibited the formation and altered the mobilities			apoptosis judged by morphologic and biochemical criteria (caspase 3 induction, nucleosomal ladder) ([2]; 50 μM calpain inhibitor 1): did not result in the apoptosis of rat hepatic stellate cells
CC(=O)CCCCn1c(=O)c2c(ncn2C)n(C)c1=O [pentoxyfilline]	little effect	little effect			
N=C(N)NCc1cccc(I)c1 [m-iodobenzylguanidine]			prevented the cleavage of DNA to a nucleosomal ladder	did not prevent the detachment of hepatic stellate cells from the substratum	
COC(=O)C[C@H](NC(=O)[C@H](C)NC(=O)[C@@H](NC(=O)OCc1ccccc1)C(C)C)C(=O)CF [Z-VAD-FMK, benzyloxycarbonyl-Val-Ala-Asp-fluoromethylketone] (Cbz-Val-Ala-Asp(OMe)-CH2F)				did not prevent the morphologic alterations caused by gliotoxin	inhibition of gliotoxin-induced nucleosomal ladder ([3]; Z-VAD-FMK 1 μmol/L with 1.5 μmol/L gliotoxin): substantial inhibition; inhibition of gliotoxin-induced nucleosomal ladder ([3]; Z-VAD-FMK 100 and 10 (m/L printed) with 1.5 μmol/L gliotoxin): inhibited completely; effect on gliotoxin-induced caspase 3 activity [4]: inhibited by cotreatment
COc1cc(N(CC(=O)OCOC(C)=O)CC(=O)OCOC(C)=O)c2nc(COc3cc(C)ccc3N(CC(=O)OCOC(C)=O)CC(=O)OCOC(C)=O)ccc2c1 [quin-2AM]			blocks DNA cleavage	without preventing cell detachment	
CC(=O)N[C@@H](CS)C(=O)O [N-acetyl cysteine]	little effect	little effect			
CN(C)CCN(Cc1cccs1)c1ccccn1 [methapyrilene]					hepatocytes that do not exclude trypan blue, compared with 50 μmol/L gliotoxin (rat hepatocytes [5]): a level similar; cleavage of hepatocyte DNA to a nucleosomal ladder (rat hepatocytes [6]): only hepatocytes treated with TNF-α and cycloheximide cleaved their DNA to a nucleosomal ladder
CC/C(=C(\c1ccccc1)c1ccc(OCCN(C)C)cc1)c1ccccc1 [tamoxifen]			prevented the cleavage of DNA to a nucleosomal ladder	did not prevent the detachment of hepatic stellate cells from the substratum	
